Test results taken from patent publication KR20110126596A, “자외선 방지제” (고쿠리츠 다이가쿠 호우징 지바 다이가쿠, priority 2008, dated 2010).

Test system: RS cells [RS 세포]
Test: MTT assay of UV (UVC) irradiation-induced cell damage in cultured human RS cells pretreated with the substance
Type: cell-based
Conditions: UV 14 J/m2; for resistance to UV-induced cell damage compared with cells cultured without addition (in words): EPH 1/10 or 1/100 (v/v), 1 day, 3 days after irradiation (Fig. 2)

OCCOc1ccccc1 [페녹시에탄올]
resistance to UV-induced cell damage compared with cells cultured without addition (in words) (listed as EPH): 높은 저항성을 나타내었다 | resistance to UV-induced cell damage compared with cells cultured without addition (in words) (listed as 하이솔브 EPH): 높은 저항성을 나타낸다 | resistance to cell damage by UV irradiation, compared with no addition (phenoxyethanol added at 1/10 - 1/100 (v/v), 1 day pretreatment, MTT 3 days after irradiation): ≥ 2 fold
